Read-outs that look alike come from different tables or passages of the source. Each block holds one molecule with its values, some of them ahead of it.
Columns and labels:
[1] = Plasma PK of baxdrostat and baxdrostat-M in the metformin crossover study (Example 6A); format: in vivo, human; conditions: single 10-mg dose of baxdrostat; for AUC(0-t) / Cmax / Tmax: human
Procedure: This study was designed as a phase 1, randomized, open-label, 2-period, crossover trial. Each subject participated in a screening period of up to 26 days followed by 2 inpatient treatment periods and a follow-up phone call. […] Plasma samples were extracted by protein precipitation with methanol, followed by analysis by LC-MS/MS with ESI(+) and MRM. Reversed-phase chromatographic separation with a mobile phase gradient of 20% to 90% was utilized, and total run time was approximately 5 minutes. […] PK parameters were calculated using noncompartmental methods with SAS software, version 9.4 (SAS Institute). […] Tmax; […] AUC0-t; AUC0-inf, AUC0-inf extrapolated; λz; and t1/2. Plasma AUC0-72 was assessed only for baxdrostat and baxdrostat-M. […] Urine PK parameters included Ae, renal clearance (calculated as Ae/AUC), and the fraction of dose excreted renally.

[2] = Pharmacokinetics in subjects with varying degrees of renal function (Example 4); format: in vivo, human
Procedure: This phase 1, open-label, single-dose, parallel-group study was designed in accordance with the FDA guidance for the design and analysis of studies that assess the influence of impaired renal function on PK. Subjects were enrolled into three renal function groups defined based on eGFR calculated using the Chronic Kidney Disease Epidemiology Collaboration equation as follows: […]
Control(normal renal function or mild renal impairment:eGFR≥60 mL/min) • Moderate to severe renal impairment (eGFR 15 to 59 mL/min) • Kidney failure (eGFR<15 mL/min, including subjects on dialysis)
All subjects received a single 10 mg dose of baxdrostat in an open-label manner. […] All subjects were required to fast for a minimum of 10 hours prior to baxdrostat administration. They were then dosed at 8:00 AM (±2 hours) with two 5 mg tablets administered with approximately 240 mL of water. Subjects continued fasting for a minimum of 4 hours after dosing. No other medications were permitted within 2 hours prior to dosing and for 2 hours after dosing with baxdrostat. Subjects on dialysis received the study drug on a non-dialysis day. Blood and urine sample collection for PK analysis continued for 7 days and was proceeded by a follow-up phone call 3±1 days after clinic discharge.
Plasma and urine samples were analyzed to measure concentrations of baxdrostat and its primary metabolite (baxdrostat-M) using a validated LC-MS/MS method. “Baxdrostat-M” as used herein refers a compound having the following structure:
Blood and urine samples were collected prior to and after dosing for measurement of plasma and urine baxdrostat and baxdrostat-M concentrations to characterize maximum observed plasma concentration (Cmax), time to Cmax (Tmax), AUC0-last, and AUC0-inf for baxdrostat and baxdrostat-M. The t1/2, CL/F, and V/F were calculated for plasma baxdrostat only. Urine PK parameters included the cumulative amount of baxdrostat and baxdrostat-M excreted in urine (Ae), renal clearance (CLR) of baxdrostat and baxdrostat-M, and fraction of dose excreted renally (Fe) for baxdrostat.

[3] = TEAEs by MedDRA class
clinical = conditions: human, in vivo; for CL renal: CLR (urine); for Tmax: Tmax (plasma)
[4] = human, in vivo, 1000 mg
[5] = PATHWAY-2 study; cited from earlier work

AUC(0-t) ([1]; read-out: AUC0-24, GM): 0.103 µg·h/mL
AUC(0-t) ([1]; read-out: AUC0-24, Mean): 0.111 µg·h/mL
AUC(0-t) ([1]; read-out: AUC0-72, GM): 0.248 µg·h/mL
AUC(0-t) ([1]; read-out: AUC0-72, Mean): 0.264 µg·h/mL
Cmax ([1]; read-out: Cmax, GM): 6.16 ng/mL
Cmax ([1]; read-out: Cmax, Mean): 6.72 ng/mL
Tmax ([1]; read-out: Tmax, GM): 12.4 h
Tmax ([1]; read-out: Tmax, Mean): 15.7 h
λz, GM [1]: 0.030 h⁻¹
λz, Mean [1]: 0.030 h⁻¹
Tmax ([2]; human, plasma, oral, 10 mg, all renal function groups, after single 10 mg baxdrostat, read-out: Tmax): ~22 h
Compound: CN1C(=O)CCc2cc(-c3cncc4c3CCCC4O)ccc21 (stereo not drawn) [baxdrostat-M]
plasma concentration-time curves vs control ([2]; moderate to severe renal impairment and kidney failure groups): qualitatively similar to the control group

CL renal (clinical; 1000 mg, GM): 460 mL/min
CL renal (clinical; 1000 mg, Mean): 466 mL/min
Tmax (clinical; 1000 mg, Mean (SD)): 2.14 h
CL renal (clinical; GM): 430 mL/min
CL renal (clinical; Mean): 441 mL/min
Tmax (clinical; GM (CV %)): 1.92 h
Tmax (clinical; Mean (SD)): 2.04 h
AUC0-inf (plasma), GM [4]: 11,087.78 h · ng/mL
AUC0-inf (plasma), Mean [4]: 11,224.76 h · ng/mL
AUC0-t (plasma), GM [4]: 11,024.21 h · ng/mL
AUC0-t (plasma), Mean [4]: 11,158.75 h · ng/mL
Cmax (plasma), GM [4]: 1732.62 ng/mL
Cmax (plasma), Mean [4]: 1765.39 ng/mL
Compound: CN(C)C(=N)N=C(N)N [Metformin, metformin]
Abdominal pain upper, No. (%) [3]: 1 (3.8) No. (%)
Burns first degree, No. (%) [3]: 1 (3.8) No. (%)
Diarrhea, No. (%) [3]: 3 (11.5) No. (%)
Dizziness postural, No. (%) [3]: 0 (0.0) No. (%)
Flatulence, No. (%) [3]: 0 (0.0) No. (%)
Gastrointestinal disorders, No. (%) [3]: 4 (15.4) No. (%)
General disorders and administration site conditions, No. (%) [3]: 0 (0.0) No. (%)
Injury, poisoning, and procedural complications, No. (%) [3]: 1 (3.8) No. (%)
Nausea, No. (%) [3]: 1 (3.8) No. (%)
Nervous system disorders, No. (%) [3]: 0 (0.0) No. (%)
Presyncope, No. (%) [3]: 0 (0.0) No. (%)
Vessel puncture site pain, No. (%) [3]: 0 (0.0) No. (%)
Diarrhea, No. (%) ([3]; listed as metformin): 3 (11.5%) No. (%)

Compound: CC(=O)S[C@@H]1CC2=CC(=O)CC[C@]2(C)[C@H]2CC[C@@]3(C)[C@@H](CC[C@@]34CCC(=O)O4)[C@H]12 [spironolactone]
rate of hyperkalemia [5]: 2.1%

— patent US20260041679A1, “METHOD OF TREATING HYPERTENSION WITH THE ALDOSTERONE SYNTHASE INHIBITOR BAXDROSTAT” (CINCOR PHARMA, INC., priority 2022, published 2026)
